Laboratory results reported in patent US7393825B2, “Microdose therapy” (Strakan International Limited, priority 1997, dated 2008).

Tests used:
L-NAME treated rats = experiment: Mean arterial pressure response to vasoactive infusions in control and L-NAME treated rats; assay type: in vivo, rat; conditions: for shift of concentration-mean arterial pressure response curve after NO synthase blockade: L-NAME treated versus control rats
Description: The surgical method was based on the technique of Thompson et al (Hypertens. 20:809, 1992). […] The catheters were tunnelled subcutaneously and exteriorized at the back of the neck and sutured in place. Two days after surgery, MAP could be recorded (MacLab DAS, ADInstruments, Milford, Mass.). After connection, an equilibration period of approximately 30 minutes allowed for the determination of the steady state level of MAP before any recording began. Baseline MAP was determined from readings averaged over 5 minutes, taken from each rat at 15 minute intervals for at least 1 hour prior to the start of any experiment.
Rats were randomly assigned treatment with N^ω-nitro-L-arginine methyl ester (L-NAME) for 30 minutes (100 mg/kg, intraperitoneally) or 12 days (100 mg/kg, in drinking water) or tap water. Two days prior to the day of the experiment rats were instrumented with catheters, as described above. Following baseline measurements of MAP, rats were given a infusions of sodium nitroprusside (SNP, 0.5 to 32 ug/kg per minute dissolved in 0.9% sterile saline) with a step-wise increase in concentration every two minutes. Rats were allowed 30 minutes to recover from the SNP administration. Rats were then given infusions of glyceryl trinitrate (GTN, 0.5 to 32 ug/kg per minute dissolved in 0.9% sterile saline) with a step-wise increase in concentration every two minutes.
Throughout all of these pharmacological manipulations, MAP and HR were recorded at a sampling rate of 100 Hz and the data was stored on a disk drive for later analysis.

[1] = tested on: patients with previously diagnosed ED; experiment: Clinical case studies in patients with erectile dysfunction; assay type: in vivo, human; conditions: 0.2 mg/h patch
Description: Clinical Data: For erectile dysfunction reversal with microdoses of NO General Methods. Measurements were made in a clinical erectile dysfunction (ED) laboratory in patients with previously diagnosed ED. These patients were being evaluated for the purpose of optimization of their intracavernous injection dosing. All men were assessed using the Queen's University Human Sexuality Group Protocol (Kingston, Ontario, Canada).

[2] = Plasma concentration of glyceryl trinitrate after patch or spray delivery; assay type: in vivo, human; conditions: 0.2 mg/h patch after 20 to 30 minutes
Description: The concentration of glyceryl trinitrate (the typical form of NO donor derived from Nitrospray or Nitropatches) has been reported in the literature for such delivery routes to be in the order of 200 to 400 pg/ml of plasma (Sun et al., J. Clin. Pharmacol. 35:390, 1995). Based on the clinical case studies performed, it was noted that the beneficial effects of a 0.2 mg/h patch are observed after 20 to 30 minutes. This corresponds to a plasma concentration of 100 pg/ml. In respect of the application of the invention to ED therapy a preferred range of NO agent (such as GTN) is a steady state plasma concentration of about 50 to about 200 pg/ml. This range corresponds to the “window” referred to above as illustrated in FIG. 4.

[3] = in vivo; cited from earlier work
renal vasculature = experiment: Renal interstitial hydrostatic pressure (RIHP) and mean arterial pressure in anaesthetized rats

## O=[N+]([O-])OCC(CO[N+](=O)[O-])O[N+](=O)[O-] [GTN, glyceryl trinitrate]
L-NAME treated rats; L-NAME treated rats, concentrations that do not lower MAP in controls
  reversal of NO synthase blockade induced hypertension / excessive vasoconstriction: almost completely reversed
L-NAME treated rats
  shift of concentration-mean arterial pressure response curve after NO synthase blockade: shifted leftward
[1]
  time to beneficial effects: 20 to 30 min
[2]
  plasma concentration corresponding to onset of beneficial effects: 100 pg/mL
[3]
  plasma concentration reported in the literature: 200 to 400 pg/mL

## CC(C)NCC(O)c1ccc(O)c(O)c1 (stereo not shown) [INE, isopropylnorepinephrine]
L-NAME treated rats
  shift of concentration-mean arterial pressure response curve after NO synthase blockade: identical both before and after nitric oxide synthase blockade

## N=C(N)NCCC[C@H](N)C(=O)O [L-Arginine]
Renal vasculature; L-NAME treated, 150-200 mg/kg per min, FIG. 6
  renal vasoconstriction as measured by RIHP changes: reversed the renal vasoconstriction

## COC(=O)[C@@H](N)CCCNC(=N)N[N+](=O)[O-] [L-NAME, N^ω nitro-L-arginine methyl ester]
L-NAME treated rats; L-NAME alone
  hypertension following maximal NO synthase blockade: 40 mmHg
Renal vasculature; administration of NO synthase blocker, FIG. 5
  change in RIHP: sharp decline in RIHP

## COc1cc2nc(N3CCN(C(=O)c4ccco4)CC3)nc(N)c2cc1OC [prazosin]
L-NAME treated rats; FIG. 9
  increased sensitivity to nitric oxide donors following treatment: does not occur
